Measurements as given in patent US5189046A, “Protein kinase C modulators” (Nova Pharmaceutical Corporation, priority 1991, dated 1993).
Structures can show the parent of a compound that is named as a salt. Where two headings read alike, the source gives them in different places.

Experiments:
[1] = target: Protein kinase C from mouse brain; experiment: Inhibition of PKC phosphorylation of histone; type: biochemical
Experimental: Protein kinase C from mouse brain was used in the screening protocol since it contains several isozymes of the enzyme. The tissue was prepared by homogenizing two mouse brains minus the cerebelli in 5 ml of 25 mM Tris-HCl,pH 7.4, containing 2 mM ethylenediamine tetraacetic acid (EDTA) and 1 mM ethylene glycol tetraacetic acid (EGTA), using a polytron at setting 5 for 15 seconds. The homogenate was centrifuged for 1 hour at 50,000×g at 4° C. The supernatant was used as the source of enzyme. The standard reaction mixture (250 μl) contained 20 mM Tris-HCl,pH 7.5, 10 mM Mg (CH3 COO)2, 400 μM CaCl2, 0.1 mM EGTA, […] [γ-^32 P] ATP (1200 cpm/pmol), 100 μg/ml phosphatidylserine, 10 μM histone, 1 μM phorbol 12-myristate-13-acetate, 10 μl enzyme preparation and 25 μl water or test drug. The mixture was incubated at 30° C. for 5 minutes. Mixtures were removed to an ice-bath, a 50 μl aliquot of each was added to Whatman P81 paper and washed in 10% TCA for 20 minutes. The paper was then washed with ethanol, followed by ethyl ether and finally air dryed. PKC activity was quantitated by liquid scintillation counting.

[2] = tested on: protein kinase C from mouse brains; experiment: 3H-Phorbol dibutyrate binding (inhibition of binding of phorbol ester to protein kinase C); details: for IC50: IC50 determined with program EBDA
Experimental: The ability of active compounds to inhibit the binding of phorbol ester to protein kinase C from mouse brains was measured as follows. Mouse brains were homogenized in ice-cold 50 mM Tris buffer, pH 7.4, containing 0.5 mM CaCl2, in a 15 mL Dounce homogenizer with 10 gentle strokes. The homogenate was centrifuged at 100,000×g for 1 hour at 4° C. The pellets were resuspended in 25 mL of the same ice-cold buffer and protein concentration was adjusted to 0.4 mg/mL. To each binding tube was added […] of the buffer, […] of [20-^3 H]Phorbol 12,13-dibutyrate, […] final concentration in assay, […] of test drug or displacing ligand, 50 uL of 50 mM Tris, pH 7.4 at 25° C. containing 1% bovine serum albumin, and […] enzyme preparation. Tubes were incubated at 37° C. for 30 minutes, then terminated by filtration onto Whatman GF/B glass fiber filters followed by washing with 2 mL ice-cold 50 mM Tris, pH 7.4, four times. Nonspecific binding was defined as that binding occurring in the presence of 1 mM phorbol ester. Percent inhibition was determined for each inhibitor candidate, and IC50 values were determined using the computer program "EBDA".

[3] = tested on: Protein kinase A catalytic subunit; experiment: Inhibition of protein kinase A phosphorylation of histone; type: biochemical; details: for PKA percent inhibition (phosphorylation of histone): percent inhibition at the maximum concentration tested 100 μM
Experimental: Protein kinase A activity was determined as follows. Protein kinase A catalytic subunit was purchased from Sigma Chemical Company. […] Incubation was at 30° C. for 5 minutes, then the assay was completed as described for protein kinase C above.

[4] = mouse brain PKC, histone, 30° C., 5 minutes, read-out: PKC IC50 (phosphorylation of histone)
[5] = text summary of Table IV, read-out: IC50, inhibition of phosphorylation by PKC

SMILES | IC50 [1, 4] [µM] | IC50 [1, 5] [µM] | % inhibition @ 100 μM (3H-phorbol dibutyrate binding) ([2]; dihydrochloride) [%] | IC50 ([2]; dihydrochloride) [µM] | PKA percent inhibition (phosphorylation of histone) [3] [%] | % inhibition @ 100 μM (3H-phorbol dibutyrate binding) [2] [%] | IC50 [2] [µM] | IC50 ([3]; reference standards only, read-out: PKA IC50 (phosphorylation of histone)) [µM]
CCCCCCCCCCCCC(=O)N1CCCCC1CNC(=O)[C@@H](N)CCCCN (stereo partly shown) [2,6-diamino-N-([1-(1-oxotridecyl)-2-piperidinyl]methyl)hexan] [2,6-Diamino-N-([1-(1-oxotridecyl)-2-piperidinyl]methyl)hexanamide dihydrochloride] | 13 | 13 | 22 | 191 | 0 |  |  | 
CCCCCCCCCCCCC(=O)N1CCCCC1CNC(=O)[C@@H](N)CCCCN (stereo partly shown) [2,6-diamino-N-([1-(1-oxotridecyl)-2-piperidinyl]methylhexana] [2,6-diamino-N-([1-(1-oxotridecyl)-2-piperidinyl]methylhexanamidedihydrochloride] |  |  | 47 | 133 |  |  |  | 
CCCCCCCCCCCCC(=O)N1CCCCC1CNC(=O)[C@@H](N)CO (stereo partly shown) [2-Amino-3-hydroxy-N-([1-(1-oxotridecyl)-2-piperidinyl]methyl)propanamide hydrochloride] | 44 |  |  |  | 0 | 9 |  | 
CCCCCCCCCCCCC(=O)N1CCCCC1CNC(=O)[C@@H](N)Cc1c[nH]cn1 (stereo partly shown) [2-Amino-N-([1-(1-oxotridecyl)-2-piperidinyl]methyl)-3-(1H-imidazol-4-yl)propanamide dihydrochloride] | 60 |  |  |  | 0 | 28 | 343 | 
CCCCCCCCCCCCC(=O)N1CCCCC1CNC(=O)CN.Cl (stereo not shown) [2-Amino-N-([1-(1-oxotridecyl)-2-piperidinyl]methyl)ethanamide hydrochloride] | 51 |  |  |  | 0 | 21 |  | 
CCCCCCCCCCCCC(=O)N1CCCCC1CNC(=O)[C@H](C)N (stereo partly shown) [2-Amino-N-([1-(1-oxotridecyl)-2-piperidinyl]methyl)propanamide hydrochloride] | 52 |  |  |  | 0 | 49 |  | 
CCCCCCCCCCCCC(=O)N1CCCCC1CNC(=O)[C@@H](N)CCCN (stereo partly shown) [2.5-Diamino-N-([1-(1-oxotridecyl)-2-piperidinyl]methyl)pentanamide dihydrochloride] | 18 |  |  |  | 0 |  |  | 
CCCCCCCCCCCC(=O)N1CCC[C@H]1CNC(=O)[C@@H](N)CCCCN [2.6-Diamino-N-([1-(1-oxododecyl)-2-pyrrolidinyl]methyl)hexanamide dihydrochloride] | 46 |  |  |  | 0 |  |  | 
CCCCCCCCCCCCC(=O)N1CCCCC1CNC(=O)[C@@H](N)CC(=O)OCc1ccccc1 (stereo partly shown) [3-Amino-4-oxo-4-[([1-(1-oxotridecyl)-2-piperidinyl]methyl)amino]butanoic acid phenylmethyl ester hydrochloride] | 92 | 92 |  |  | 0 | 2 |  | 
CCCCCCCCCCCCC(=O)N1CCCCC1CNC(=O)CCN.O=C(O)/C=C/C(=O)O (stereo not shown) [3-Amino-N-([1-(1-oxotridecyl)-2-piperidinyl]methyl)propanamide fumarate] | 36 |  |  |  | 0 | 45 | 139 | 
CCCCCCCCCCCCC(=O)N1CCCCC1CNC(=O)[C@@H](N)CCC(N)=O (stereo partly shown) [4-Amino-5-oxo-5-[([1-(1-oxotridecyl)-2-piperidinyl]methyl)amino]pentanamide hydrochloride] | 72 |  |  |  | 0 | 17 |  | 
CC1CNCCN1S(=O)(=O)c1cccc2cnccc12 (stereo not shown) [Example H-7, reference compound] | 9 |  |  |  |  |  |  | 28
CCCCCCCCCCCCC(=O)N1CCCCC1CNC(=O)C1CCCNC1 (stereo not shown) [N-[([1-Oxotridecyl)-2-piperidinyl]methyl)amino]3-methyloxopiperidine hydrochloride] | 29 |  |  |  | 0 | 34 | 157 | 
CCCCCCCCCCCCC/C=C/[C@@H](O)[C@@H](N)CO [Sphingosine, reference compound] | 15 |  |  |  | 88 |  |  | 
